Read-outs that look alike come from different tables or passages of the source.
Assays:
SF3b complexes = target: T1, SF3b complexes (Homo sapiens, UniProt O75533+Q7RTV0); experiment: Scintillation proximity assay (SPA) with [3H]-labelled pladienolide probe; type: binding; conditions: SF3B1 (WT); geometric mean; read-out: SPA-ATS GMean IC50 (nM) SF3B1 (WT)
T1 construct: endogenous in cells; host or cells: Nuclear extracts; A HeLa S3 extract preparation is described for the in vitro splicing assay
Method in brief: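 SF3b complexes captured from nuclear extracts on anti-SF3B1 antibody SPA beads; test compounds pre-incubated 30 min before 2.5 nM [3H]-pladienolide probe added, then 30 min incubation. Bound probe read by scintillation; values from non-linear regression of concentration–response curves.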

[1] = test system: Ad2 variant pre-mRNAs spliced in HeLa S3 nuclear extracts; experiment: In vitro splicing assay (IVS), RT-qPCR of spliced product; type: biochemical; conditions: for IC50: geometric mean; for Ratio Ad2.1/2.2: ratio of IVS IC50 Ad2.1 to Ad2.2
Method in brief: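 Read-out is one-step TaqMan RT-qPCR of spliced Ad2 mRNA with Ftz as reference, normalized to DMSO and fit by non-linear regression. Reactions held HeLa S3 nuclear extract, 2 ng Ad2-derived pre-mRNA and test compound, with 15 min preincubation. Splicing was started with ATP-containing activation buffer and run 90 min at 30 °C.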

[2] = test system: NCI-H1568 cells (high MCL1); experiment: Cell proliferation and viability, CellTiter-Glo, 72 hours; type: cell-based; conditions: for GI50: geometric mean
Method in brief: (§1)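 ATP luminescence (CellTiter-Glo) was measured 72 h after treatment with compound at 10 μM–100 pM (11 points, half-log) in 0.1% DMSO. The Panc line was grown in RPMI-1640 plus insulin and 15% FBS, the other in 10% FBS. Data were normalised to time zero and vehicle controls, where −100% is cidal and 0% static.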

[3] = test system: Panc 05.04 cells (SF3b K700E mutant); experiment: as above; type: cell-based; conditions: for GI50: geometric mean
Method in brief: as §1

[4] = Ad2.1 pre-mRNA substrate, read-out: qPCR-IVS-ATS GMean IC50 (nM) Ad2.1
[5] = Ad2.2 pre-mRNA substrate, read-out: qPCR-IVS-ATS GMean IC50 (nM) Ad2.2
[6] = NCI-H1568, read-out: CTGlo-ATS GMean GI50 (nM) 72 h NCIH1568.1, NCIH1568.1 cells, 72 h
[7] = NCIH1568.1 cells, 72 h, −100% cidal, 0% static, 100% maximal growth
[8] = PANC0504.1 cells, 72 h, −100% cidal, 0% static, 100% maximal growth
[9] = Panc 05.04, read-out: CTGlo-ATS GMean GI50 (nM) 72 h PANC0504.1, PANC0504.1 cells, 72 h
[10] = 72 h, NCIH1568.1, -100% = cidal, 0% = static, 100% = uninhibited growth
[11] = NCI-H1568, read-out: CTGlo-ATS GMean GI50 (nM) 72 h NCIH1568.1, 72 h, NCIH1568.1
[12] = 72 h, PANC0504.1, -100% = cidal, 0% = static, 100% = uninhibited growth
[13] = Panc 05.04, read-out: CTGlo-ATS GMean GI50 (nM) 72 h PANC0504.1, 72 h, PANC0504.1
[14] = NCI-H1568, 72 h, read-out: CTGlo-ATS GMean GI50 (nM) 72 h NCIH1568.1, NCIH1568.1 cells, 72 h
[15] = Panc 05.04, 72 h, read-out: CTGlo-ATS GMean GI50 (nM) 72 h PANC0504.1, PANC0504.1 cells, 72 h

Row | Structure (SMILES) | IC50 (SF3b complexes) [nM] | IC50 [1, 4] [nM] | IC50 [1, 5] [nM] | GI50 [2, 6] [nM] | CTGlo-ATS Mean MinResponse % 72 h NCIH1568.1 [2, 7] [%] | CTGlo-ATS Mean MinResponse % 72 h PANC0504.1 [3, 8] [%] | GI50 [3, 9] [nM] | Ratio Ad2.1/2.2 [1] | CTGlo-ATS Mean MinResponse % 72 h NCIH1568.1 [2, 10] [%] | GI50 [2, 11] [nM] | CTGlo-ATS Mean MinResponse % 72 h PANC0504.1 [3, 12] [%] | GI50 [3, 13] [nM] | GI50 [2, 14] [nM] | GI50 [3, 15] [nM]
1 | CC[C@H](O)[C@@H](C)CN1CCN(c2cc(F)cc(/C=C(\C)[C@H]3OC(=O)C[C@H](O)CC[C@H](C)[C@@H](OC(=O)N4CCN(C)CC4)/C=C/[C@@H]3C)c2)CC1 [Compound 71] | 3.71 | 29.7 | 18.9 | 6.39 | −92.527 | −68.599 | 11.5 |  |  |  |  |  |  | 
2 | C/C(=C\c1ccc(C)c(S(=O)(=O)N2CCCC2)c1)[C@H]1OC(=O)C[C@H](O)CC[C@H](C)[C@@H](OC(=O)N2CCN(C)CC2)/C=C/[C@@H]1C [Compound 203, [(2S,3S,4E,6R,7S,10R)-10-hydroxy-3,7-dimethyl-2-[(E)-1-(4-methyl-3-pyrrolidin-1-ylsulfonylphenyl)prop-1-en-2-yl]-12-oxo-1-oxacyclododec-4-en-6-yl] 4-methylpiperazine-1-carboxylate] | 10.1 | 14400 | 69.7 |  |  |  |  | 207.149 | −36.664 | 47.3 | −94.627 | 45 |  | 
3 | C/C(=C\c1cnn(C)c1)[C@H]1OC(=O)C[C@H](O)CC[C@H](C)[C@@H](OC(=O)N2CCN(C)CC2)/C=C/[C@@H]1C [Compound 103] | 258 | > 25000 | 4260 |  | 78.168 | 80.958 |  |  |  |  |  |  | > 10000 | > 10000
4 | C/C(=C\c1cc(F)cc(N2CC(F)C2)c1)[C@H]1OC(=O)C[C@H](O)CC[C@H](C)[C@@H](OC(=O)N2CCN(C)CC2)/C=C/[C@@H]1C [Compound 38] | 3.1 | 1020 | 25.2 | 19.6 | −54.093 | −88.672 | 14.4 |  |  |  |  |  |  | 
5 | C/C(=C\c1cc(N2CCOCC2)ccc1F)[C@H]1OC(=O)C[C@H](O)CC[C@H](C)[C@@H](OC(=O)N2CCC(N3CCCCC3)CC2)/C=C/[C@@H]1C [Compound 11] | 9.49 | > 25000 | 93.4 | 84.4 | −43.979 | −91.789 | 54.2 |  |  |  |  |  |  | 
6 | C/C(=C\c1cc(F)cc(N2CCN(CCO)C2=O)c1)[C@H]1OC(=O)C[C@H](O)CC[C@H](C)[C@@H](OC(=O)N2CCN(C)CC2)/C=C/[C@@H]1C [Compound 65] | 2.83 | 26.2 | 17.3 |  | −68.297 | −88.951 |  |  |  |  |  |  | 5.88 | 5.74
7 | C/C(=C\c1cc(F)cc(N2CCOCC2)c1)[C@H]1OC(=O)C[C@H](O)CC[C@H](C)[C@@H](OC(=O)N2CC[C@@H](F)C2)/C=C/[C@@H]1C [Compound 247, [(2S,3S,4E,6R,7S,10R)-2-[(E)-1-(3-fluoro-5-morpholin-4-ylphenyl)prop-1-en-2-yl]-10-hydroxy-3,7-dimethyl-12-oxo-1-oxacyclododec-4-en-6-yl] (3R)-3-fluoropyrrolidine-1-carboxylate] | 14.4 | 50.8 | 34.6 |  |  |  |  | 1.467 | −67.545 | 31.4 | −77.509 | 40.5 |  | 
8 | C/C(=C\c1cc(F)cc(N2CCOC[C@@H]2C)c1)[C@H]1OC(=O)C[C@H](O)CC[C@H](C)[C@@H](OC(=O)N2CCN(C)CC2)/C=C/[C@@H]1C [Compound 83] | 4.57 | 159 | 49 | 17.3 | −68.447 | −94.723 | 15.6 |  |  |  |  |  |  | 
9 | C/C(=C\c1cc(F)cc(N2CCN(CCO)CC2)c1)[C@H]1OC(=O)C[C@H](O)CC[C@H](C)[C@@H](OC(=O)N2CCN(C)CC2)/C=C/[C@@H]1C [Compound 12] | 4.88 | 14.7 | 13.5 | 3.64 | −92.161 | −73.954 | 7.55 |  |  |  |  |  |  | 
10 | C/C(=C\c1cc(F)c2cn[nH]c2c1)[C@H]1OC(=O)C[C@H](O)CC[C@H](C)[C@@H](OC(=O)N2CCN(C)CC2)/C=C/[C@@H]1C [Compound 59] | 2.75 | 13600 | 46.1 | 14.5 | −44.526 | −95.512 | 17.5 |  |  |  |  |  |  | 
11 | CC[C@H](O)[C@@H](C)C(=O)N1CCN(c2cc(F)cc(/C=C(\C)[C@H]3OC(=O)C[C@H](O)CC[C@H](C)[C@@H](OC(=O)N4CCN(C)CC4)/C=C/[C@@H]3C)c2)CC1 [Compound 72] | 4.66 | 35.8 | 14 | 4.19 | −80.730 | −75.581 | 5.68 |  |  |  |  |  |  | 
12 | C/C(=C\c1cc(F)c2cnn(C3CCOCC3)c2c1)[C@H]1OC(=O)C[C@H](O)CC[C@H](C)[C@@H](OC(=O)N2CCN(C)CC2)/C=C/[C@@H]1C [Compound 116] | 4.45 | 25 | 19.2 | 1.55 | −90.483 | −76.511 | 2.2 |  |  |  |  |  |  | 
13 | C/C(=C\c1cc(F)cc(N2CCOCC2)c1)[C@H]1OC(=O)C[C@H](O)CC[C@H](C)[C@@H](OC(=O)N2CCN(C)CC2)/C=C/[C@@H]1C [Compound 3] | 1.74 | 18.6 | 10.3 |  | −78.460 | −87.809 |  |  |  |  |  |  | 2.42 | 2.96
14 | C/C(=C\c1cc(F)cc(N2CCOCC2)c1)[C@H]1OC(=O)C[C@H](O)CC[C@H](C)[C@@H](OC(=O)N2CCN(C)C(C)(C)C2)/C=C/[C@@H]1C [Compound 246, [(2S,3S,4E,6R,7S,10R)-2-[(E)-1-(3-fluoro-5-morpholin-4-ylphenyl)prop-1-en-2-yl]-10-hydroxy-3,7-dimethyl-12-oxo-1-oxacyclododec-4-en-6-yl] 3,3,4-trimethylpiperazine-1-carboxylate] | 5.8 | 279 | 36.1 |  |  |  |  | 7.730 | −68.331 | 12.1 | −95.467 | 16.5 |  | 
15 | C/C(=C\c1cc(F)cc(N(C)C2CCOCC2)c1)[C@H]1OC(=O)C[C@H](O)CC[C@H](C)[C@@H](OC(=O)N2CCN(C)CC2)/C=C/[C@@H]1C [Compound 168] | 3.05 | 27.6 | 16.5 | 5.96 | −75.760 | −86.930 | 10.4 |  |  |  |  |  |  | 
16 | C/C(=C\c1cc(F)cc(N2CCOCC2)c1)[C@H]1OC(=O)C[C@H](O)CC[C@H](C)[C@@H](OC(=O)N2CCC(N(C)C)C2)/C=C/[C@@H]1C (stereo in doubt) [Compound 243, [(2S,3S,4E,6R,7S,10R)-2-[(E)-1-(3-fluoro-5-morpholin-4-ylphenyl)prop-1-en-2-yl]-10-hydroxy-3,7-dimethyl-12-oxo-1-oxacyclododec-4-en-6-yl] (3S)-3-(dimethylamino)pyrrolidine-1-carboxylate] | 3.59 | 98.4 | 38.5 |  |  |  |  | 2.553 | −71.678 | 10.6 | −92.290 | 10.4 |  | 
